Key:
Human plasma kallikrein = Human plasma kallikrein (Homo sapiens (Human), UniProt P03952); experiment: Determination of the IC50 for plasma kallikrein; assay type: biochemical; conditions: 37° C., substrate H-DPro-Phe-Arg-AFC, read-out: IC50 (human PKal)
Procedure: Determination of the IC50 for Plasma Kallikrein
(§1) Plasma kallikrein inhibitory activity in vitro was determined using standard published methods (see e.g. Johansen et al., Int. J. Tiss. Reac. 1986, 8, 185; Shori et al., Biochem. Pharmacol., 1992, 43, 1209; Stiirzebecher et al., Biol. Chem. Hoppe-Seyler, 1992, 373, 1025). Human plasma kallikrein (Protogen) was incubated at 37° C. with the fluorogenic substrate H-DPro-Phe-Arg-AFC and various concentrations of the test compound. Residual enzyme activity (initial rate of reaction) was determined by measuring the change in optical absorbance at 410 nm and the IC50 value for the test compound was determined.

Human KLK1 = Human KLK1 (Homo sapiens (Human), UniProt P06870); experiment: Determination of the IC50 for KLK1; assay type: biochemical; conditions: Human KLK1, 37° C., substrate H-DVal-Leu-Arg-AFC; Table 13
Procedure: Determination of the IC50 for KLK1
as §1, with “KLK1” for “Plasma kallikrein”, “Stürzebecher” for “Stiirzebecher”, “KLK1 (Callbiochem)” for “plasma kallikrein (Protogen)”, “H-DVal-Leu-Arg-AFC” for “H-DPro-Phe-Arg-AFC”

Human KLK1, sequence (P06870 25-262): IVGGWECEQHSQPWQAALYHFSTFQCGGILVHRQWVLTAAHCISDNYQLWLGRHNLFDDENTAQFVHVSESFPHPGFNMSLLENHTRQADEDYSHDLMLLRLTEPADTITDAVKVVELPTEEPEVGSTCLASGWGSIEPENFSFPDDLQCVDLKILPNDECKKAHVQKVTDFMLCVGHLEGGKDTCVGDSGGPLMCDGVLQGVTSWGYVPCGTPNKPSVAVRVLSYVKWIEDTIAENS
Human plasma kallikrein, sequence (P03952 391-638): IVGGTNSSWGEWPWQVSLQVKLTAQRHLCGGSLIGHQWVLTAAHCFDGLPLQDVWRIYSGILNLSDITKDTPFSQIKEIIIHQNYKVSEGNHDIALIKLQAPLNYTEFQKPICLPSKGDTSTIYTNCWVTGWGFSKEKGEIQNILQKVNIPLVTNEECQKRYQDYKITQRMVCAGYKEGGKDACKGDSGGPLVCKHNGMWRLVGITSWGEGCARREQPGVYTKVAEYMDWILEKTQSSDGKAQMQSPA
Human plasma kallikrein, sequence (P03952 20-390 partner): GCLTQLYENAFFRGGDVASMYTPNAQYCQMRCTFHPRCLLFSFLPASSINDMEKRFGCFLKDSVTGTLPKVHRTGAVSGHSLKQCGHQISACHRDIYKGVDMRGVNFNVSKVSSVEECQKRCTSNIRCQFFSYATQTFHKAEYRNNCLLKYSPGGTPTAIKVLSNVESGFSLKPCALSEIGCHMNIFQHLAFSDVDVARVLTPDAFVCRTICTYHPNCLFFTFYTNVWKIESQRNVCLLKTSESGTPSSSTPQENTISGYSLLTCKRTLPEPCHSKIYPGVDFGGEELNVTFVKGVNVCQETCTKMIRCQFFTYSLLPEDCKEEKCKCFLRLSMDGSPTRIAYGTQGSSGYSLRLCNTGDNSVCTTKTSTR

| Compound | IC50 (Human plasma kallikrein) [nM] | IC50 (Human KLK1) [µM] |
| --- | --- | --- |
| CCOc1ccc(C[C@@H](NC(=O)CCc2ccccc2)C(=O)N[C@@H](Cc2ccccc2)C(=O)NCc2ccc(CN)cc2)cc1 [Example 86, (S)-N-(4-Aminomethyl-benzyl)-2-[(R)-3-(4-ethoxy-phenyl)-2-(3-phenyl-propionylamino)-propionylamino]-3-phenyl-propionamide] | 423 | > 10 |
| CCOc1ccc(C[C@@H](NC(=O)CCCc2ccccc2)C(=O)N[C@@H](Cc2ccccc2)C(=O)NCc2ccc(CN)cc2)cc1 [Example 87, N-[(R)-1-[(S)-1-(4-Aminomethyl-benzylcarbamoyl)-2-phenyl-ethylcarbamoyl]-2-(4-ethoxy-phenyl)-ethyl]-4-phenyl-butyramide] | 755 | 3.4 |
| CCOc1ccc(C[C@@H](NC(=O)CNC(=O)c2ccccc2)C(=O)N[C@@H](Cc2ccccc2)C(=O)NCc2ccc(CN)cc2)cc1 [Example 98, N-{[(R)-1-[(S)-1-(4-Aminomethyl-benzylcarbamoyl)-2-phenyl-ethylcarbamoyl]-2-(4-ethoxy-phenyl)-ethylcarbamoyl]-methyl}-benzamide] | 576 | 5.1 |
| CCOc1ccc(C[C@@H](NS(=O)(=O)Cc2ccccc2)C(=O)N[C@@H](Cc2ccccc2)C(=O)NCc2ccc(CN)cc2)cc1 [Example 100, (R)-N-[(S)-1-(4-Aminomethyl-benzylcarbamoyl)-2-phenyl-ethyl]-3-(4-ethoxy-phenyl)-2-phenylmethanesulfonylamino-propionamide] | 474 | 2.9 |
| CCOc1ccc(C[C@@H](NC(=O)CNS(=O)(=O)c2ccc(C)cc2)C(=O)N[C@@H](Cc2ccccc2)C(=O)NCc2ccc(CN)cc2)cc1 [Example 101, (S)-N-(4-Aminomethyl-benzyl)-2-{(R)-3-(4-ethoxy-phenyl)-2-[2-(toluene-4-sulfonylamino)-acetylamino]-propionylamino}-3-phenyl-propionamide] | 1110 | > 10 |
| CCOc1ccc(C[C@@H](NC(=O)Nc2ccc(Cl)cc2)C(=O)N[C@@H](Cc2ccccc2)C(=O)NCc2ccc(CN)cc2)cc1 [Example 102, (R)-N-[(S)-1-(4-Aminomethyl-benzylcarbamoyl)-2-phenyl-ethyl]-2-[3-(4-chloro-phenyl)-ureido]-3-(4-ethoxy-phenyl)-propionamide] | 10000 | 9 |
| CCOc1ccc(C[C@@H](NC(=O)N(CC)Cc2ccccc2)C(=O)N[C@@H](Cc2ccccc2)C(=O)NCc2ccc(CN)cc2)cc1 [Example 103, (R)-N-[(S)-1-(4-Aminomethyl-benzylcarbamoyl)-2-phenyl-ethyl]-2-(3-benzyl-3-ethyl-ureido)-3-(4-ethoxy-phenyl)-propionamide] | 10000 | > 10 |

Molecules with a lower IC50 (Human plasma kallikrein), results first:

| IC50 (Human plasma kallikrein) [nM] | IC50 (Human KLK1) [µM] | Compound |
| --- | --- | --- |
| 276 | > 10 | CCOc1ccc(C[C@@H](NC(=O)c2cccc(C(F)(F)F)c2)C(=O)N[C@@H](Cc2ccccc2)C(=O)NCc2ccc(CN)cc2)cc1 [Example 90, N-[(R)-1-[(S)-1-(4-Aminomethyl-benzylcarbamoyl)-2-phenyl-ethylcarbamoyl]-2-(4-ethoxy-phenyl)-ethyl]-3-trifluoromethyl-benzamide] |
| 159 | > 10 | CCOc1ccc(C[C@@H](NC(=O)c2ccc(C)nc2)C(=O)N[C@@H](Cc2ccccc2)C(=O)NCc2ccc(CN)cc2)cc1 [Example 104, N-[(R)-1-[(S)-1-(4-Aminomethyl-benzylcarbamoyl)-2-phenyl-ethylcarbamoyl]-2-(4-ethoxy-phenyl)-ethyl]-6-methyl-nicotinamide] |
| 99 | 3.7 | CCOc1ccc(C[C@@H](NC(=O)c2ccccc2Cl)C(=O)N[C@@H](Cc2ccccc2)C(=O)NCc2ccc(CN)cc2)cc1 [Example 89, N-[(R)-1-[(S)-1-(4-Aminomethyl-benzylcarbamoyl)-2-phenyl-ethylcarbamoyl]-2-(4-ethoxy-phenyl)-ethyl]-2-chloro-benzamide] |
